Assay results as given in PubChem BioAssay (NCI).
Several values for one entry are separate records, joined by “and”; a condition that tells them apart may be missing. Equal entries are not always repeated.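 Interpolation was linear, between the two tested concentrations surrounding the appropriate level; five concentrations were tested over 48 hours in 96-well plates. Abbreviation: GI50, concentration required for 50% inhibition of growth. TGI is the concentration that stops growth completely.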

What was measured:
Experiment in all cases: NCI anticancer screen, dose series, 48 h
NCI-H23 lung = test system: NCI-H23 lung
HL-60(TB) leukemia = test system: HL-60(TB) leukemia
TK-10 renal = test system: TK-10 renal
SW-620 colon = test system: SW-620 colon
OVCAR-3 ovarian = test system: OVCAR-3 ovarian
A549 NSCLC = test system: A549 NSCLC
SF-268 CNS = test system: SF-268 CNS
SK-MEL-28 melanoma = test system: SK-MEL-28 melanoma
DLD-1 colon = test system: DLD-1 colon
LXFL 529 NSCLC = test system: LXFL 529 NSCLC

Row | Structure (SMILES) | TGI (NCI-H23 lung) | TGI (HL-60(TB) leukemia) | TGI (TK-10 renal) | TGI (SW-620 colon) | TGI (OVCAR-3 ovarian) | TGI (A549 NSCLC) | TGI (SF-268 CNS) | GI50 (SK-MEL-28 melanoma) | TGI (SK-MEL-28 melanoma) | GI50 (DLD-1 colon) [µM] | TGI (DLD-1 colon) | TGI (LXFL 529 NSCLC) | GI50 (NCI-H23 lung) | GI50 (HL-60(TB) leukemia) | GI50 (TK-10 renal) | GI50 (SW-620 colon) | GI50 (OVCAR-3 ovarian) | GI50 (A549 NSCLC) | GI50 (SF-268 CNS) [µM] | GI50 (LXFL 529 NSCLC)
1 | CN(C)CCNC(=O)c1cccc2ccc(-c3ccc(O)cc3)nc12 | 10.1 µM and 12.4 µM | 3.36 µM | 9.57 µM | 11.1 µM | 15.2 µM and 15.9 µM | 7.17 µM | 17.3 µM and 19.3 µM | 4.14 µM | 11.8 µM and 16.2 µM | 2.07 | 28 µM and 13.4 µM |  |  |  |  |  |  |  |  | 
2 | c1ccc2cc(-c3cc4ccccc4s3)ccc2c1 | > 100 µM | > 100 µM | > 100 µM | > 100 µM | > 100 µM | > 100 µM | > 100 µM |  | > 100 µM |  | > 100 µM |  |  |  |  |  |  |  |  | 
3 | CC(C)(C)NNC(=O)CCn1[nH]c(=O)c(Cl)c(Cl)c1=O | > 100 µM | > 100 µM | > 100 µM | > 100 µM | > 100 µM | > 100 µM | > 100 µM |  | > 100 µM |  | > 100 µM | > 100 µM |  |  |  |  |  |  |  | 
4 | O=C1CCC(Cl)=CC2CCCN12 (stereo not drawn) | > 100 µM | > 100 µM | > 100 µM | > 100 µM |  | > 100 µM |  |  | > 100 µM |  | > 100 µM | > 100 µM |  |  |  |  |  |  |  | 
5 | CC1(C)COC(C2(C)C(=O)C=C(c3ccccc3)c3ccccc32)=N1 (stereo not drawn) | > 100 µM | 67.7 µM | > 100 µM | > 100 µM | > 100 µM | > 100 µM | > 100 µM |  | > 100 µM |  | > 100 µM | > 100 µM |  |  |  |  |  |  |  | 
6 | CC(=O)CCn1ncc(Cl)c(Cl)c1=O | 32.6 µM | 63.2 µM | > 100 µM | 39 µM | 27.5 µM | 44.6 µM | 28 µM |  | 27.2 µM |  | 29.9 µM | 27.3 µM |  |  |  |  |  |  |  | 
7 | CC(C)N(C(=O)C12C3C4C1C1C4(C#N)C3C12C#N)C(C)C (stereo not drawn) | > 100 µM |  | > 100 µM | > 100 µM | > 100 µM | > 100 µM | > 100 µM |  | > 100 µM |  | > 100 µM | > 100 µM |  |  |  |  |  |  |  | 
8 | COc1cccc2c1C(=O)c1c(O)c3c(c(O)c1C2=O)C[C@@](O)(C(=O)CO)C[C@@H]3OC1CC(N)CC(C)O1 (stereo partly drawn) | 0.325 µM and 0.259 µM | 0.122 µM and 0.939 µM | 1.55 µM and 3.45 µM | 0.434 µM and 1.36 µM | 1.11 µM and 1.22 µM |  | 0.461 µM and 0.937 µM | 0.135 µM and 0.0938 µM | 0.325 µM and 0.477 µM | 0.127 | 1.18 µM and 2.67 µM | 0.951 µM | 0.0405 µM and 0.0387 µM | 0.0091 µM and 0.00929 µM and 0.0412 µM | 0.396 µM and 0.148 µM | 0.0117 µM and 0.0389 µM | 0.102 µM | 0.00992 µM and 0.0107 µM and 0.0315 µM | 0.0515 | 
9 | COC(=O)C[C@](O)(CCCC(C)(C)O)C(=O)O[C@@H]1C(OC)=C[C@]23CCCN2CCc2cc4c(cc2[C@H]13)OCO4 | 0.548 µM and 0.086 µM | 0.237 µM and 0.0758 µM |  | 2.59 µM and 5.05 µM |  |  | 0.99 µM and 0.446 µM | 0.0222 µM |  |  | 0.228 µM |  | 0.0246 µM | 0.0249 µM | 0.0347 µM | 0.0293 µM | 0.251 µM and 0.0286 µM | 0.0953 µM and 0.0238 µM | 0.046 | 
10 | COc1ccc2occ(CCC(=O)O)c2c1 | > 100 µM | > 100 µM | > 100 µM | > 100 µM | > 100 µM | > 100 µM |  |  | > 100 µM |  | > 100 µM | > 100 µM |  |  |  |  |  |  |  | 
11 | O=C1CCC2(c3ccc(Cl)cc3)Nc3ncccc3N12 (stereo not drawn) | > 100 µM | > 100 µM | > 100 µM | > 100 µM | > 100 µM | > 100 µM | > 100 µM |  | > 100 µM |  | > 100 µM | > 100 µM |  |  |  |  |  |  |  | 
12 | CCC12CCCN(Cc3ccccc3)C1c1c(n(C)c3ccccc13)CC2 (stereo not drawn) | > 253 µM | > 253 µM | > 253 µM | > 253 µM | 215 µM | > 25.3 µM | > 253 µM |  | > 253 µM |  | > 253 µM | > 253 µM |  |  |  |  |  |  |  | 
13 | CCC(=O)CC(=O)CCC(=O)Nc1cc(C)ccc1C | > 100 µM | > 100 µM | > 100 µM | > 100 µM | > 100 µM | > 100 µM | > 100 µM |  | > 100 µM |  | > 100 µM | > 100 µM |  |  |  |  |  |  |  | 
14 | CCCCOC(=O)CNC(=O)OC/C=C/C#CC#C/C=C/COC(=O)NCC(=O)OCCCC | > 100 µM | > 100 µM | > 100 µM | > 100 µM | > 100 µM | > 100 µM | > 100 µM | > 100 µM | > 100 µM | > 100 | > 100 µM | > 100 µM | > 100 µM | > 100 µM | > 100 µM |  | > 100 µM | > 100 µM | > 100 | > 100 µM
15 | O=c1/c(=C/c2ccccc2[N+](=O)[O-])sc2nnc(-c3ccco3)n12 | 64 µM | 58.4 µM | > 100 µM | 46.8 µM | 32.4 µM | 60.3 µM | 46.3 µM |  | 57 µM |  | 97.1 µM | 34.5 µM |  |  |  |  |  |  |  | 
16 | Cc1ccc(S(=O)(=O)N(C=O)N=C2CCN(Cc3ccccc3)CC2)cc1 | > 100 µM | > 100 µM | > 100 µM | > 100 µM | > 100 µM | > 100 µM |  |  |  |  | > 100 µM | > 100 µM |  |  |  |  |  |  |  | 
17 | O=C(Nc1ccn(CCO)c(=O)n1)c1ccccc1 |  | > 100 µM | > 100 µM | > 100 µM | > 100 µM | > 100 µM | > 100 µM |  | > 100 µM |  | > 100 µM | > 100 µM |  |  |  |  |  |  |  | 
18 | COC(=O)COc1ccccc1/C=C1\N=C(c2ccccc2)N(c2cc(C(F)(F)F)ccc2Cl)C1=O | > 100 µM | > 100 µM | > 100 µM | > 100 µM | 98.6 µM | > 100 µM | > 100 µM | 47.6 µM | > 100 µM |  |  |  | > 100 µM | 31.1 µM | 56.3 µM | 38.8 µM | 34 µM | 97.4 µM | 29.8 | 
19 | NC(=O)/C=C/C(=O)c1c(Cl)cccc1Cl | 3.01 µM | 4.05 µM | 2.92 µM | 1.04 µM | 1.72 µM | 3.39 µM | 3.21 µM | 1.21 µM | 2.52 µM |  |  |  | 1.53 µM | 0.679 µM | 1.22 µM | 0.511 µM | 0.533 µM | 1.79 µM | 1.71 | 
20 | Clc1ccc2c(c1)[nH]c1c2nc2ccccn21 | 72.3 µM and 44.9 µM |  | 31.2 µM | 38.3 µM and 45.3 µM |  | > 100 µM and 74.2 µM | 87.7 µM and 37.1 µM |  | 62.4 µM and 31.3 µM |  |  | > 100 µM and 30 µM |  |  |  |  |  |  |  | 35.9 µM and 16.2 µM
